Measured values published in ChEMBL document CHEMBL3797052 (Eur J Med Chem, 2016).

What was measured:
Type in all cases: functional
[1] = Cytotoxicity against human HCT116 cells assessed as growth inhibition at 10 uM after 2 days by MTT assay; conditions: HCT-116, 48 h, read-out: GI
[2] = Cytotoxicity against human SKBR3 cells assessed as growth inhibition at 100 uM after 2 days by MTT assay; conditions: SK-BR-3, 48 h, read-out: GI
[3] = Cytotoxicity against human SKBR3 cells assessed as growth inhibition at 10 uM after 2 days by MTT assay; conditions: SK-BR-3, 48 h, read-out: GI
[4] = Cytotoxicity against human HCT116 cells assessed as growth inhibition at 100 uM after 2 days by MTT assay; conditions: HCT-116, 48 h, read-out: GI

Q: With `CNC(=O)c1cc(Oc2ccc(NC(=O)Nc3ccc(Cl)c(C(F)(F)F)c3)cc2)ccn1` [SORAFENIB] as the molecule, how does the inhibition of growth at 10 µM [1] read?
A: Its inhibition of growth at 10 µM is 48.4%.

Q: What about the inhibition of growth at 100 µM [2] of the same molecule?
A: The inhibition of growth at 100 µM was 93.1%.

Q: And the inhibition of growth at 10 µM [3]?
A: Its inhibition of growth at 10 µM is 48.9%.

Q: And the inhibition of growth at 100 µM [4]?
A: The inhibition of growth at 100 µM was 97.3%.
